Where two headings read alike, the source gives them in different places.
Columns and labels:
Format in all cases: cell-based, human
[1] = system: LoVo (Colorectal Adenocarcinoma); assay: Cell viability analysis, colon cancer LoVo
[2] = system: MDA-MB-231 (Mammary Gland, Adenocarcinoma); assay: Cell viability analysis, breast cancer MDA-MB-231
[3] = system: HeLa (Cervix Adenocarcinoma); assay: Cell viability analysis, cervical cancer HeLa
[4] = system: A375 (Amelanotic Melanoma); assay: Cell viability analysis, skin cancer A375
U-2OS = assay: Cell viability analysis, osteosarcoma U-2OS
[5] = system: Hep3B (hepatocellular carcinoma); assay: Cell viability analysis, hepatic cancer Hep3B; settings: Hep3B; repeated experiment
[6] = system: HI650 (Lung Adenocarcinoma); assay: Cell viability analysis, lung cancer HI650
NIH: OVCAR-3 = assay: Cell viability analysis, ovarian cancer NIH: OVCAR-3
[7] = system: SAS (Tongue squamous cell carcinoma); assay: Cell viability analysis, tongue cancer SAS
[8] = system: C-33A (Cervical carcinoma); assay: Cell viability analysis, cervical cancer C-33A
[9] = system: 786-O (Renal adenocarcinoma); assay: Cell viability analysis, renal cancer 786-O
AsPC-1 = assay: Cell viability analysis, pancreatic cancer AsPC-1
TOV-21G = assay: Cell viability analysis, ovarian cancer TOV-21G
[10] = system: BCC (basal cell carcinoma); assay: Cell viability analysis, skin cancer BCC
[11] = system: MCF7 (Mammary Gland, Adenocarcinoma); assay: Cell viability analysis, breast cancer MCF7
[12] = system: A549 (Lung Adenocarcinoma); assay: Cell viability analysis, lung cancer A549
T24 = assay: Cell viability analysis, bladder cancer T24
BxPC-3 = assay: Cell viability analysis, pancreatic cancer BxPC-3
[13] = system: MKN-45 (Gastric Adenocarcinoma); assay: Cell viability analysis, gastric cancer MKN-45
[14] = system: HepG2 (Hepatocellular Carcinoma); assay: Cell viability analysis, hepatic cancer HepG2
[15] = system: PC3 (p53−) (Prostate Adenocarcinoma); assay: Cell viability analysis, prostate cancer PC3
cancer cell lines = assay: Cell viability analysis (WST-1) on cancer cell lines; settings: drug 10 μM, 72 hours, WST-1; Table 3
[16] = system: AGS (Gastric Adenocarcinoma); assay: Cell viability analysis, gastric cancer AGS
[17] = system: TSGH-8301 (Urinary Bladder Carcinoma); assay: Cell viability analysis, bladder cancer TSGH-8301

## Cc1onc(-c2ccccc2Cl)c1C(=O)N[C@@H]1C(=O)N2[C@@H]1SC(C)(C)[C@@H]2C(=O)[O-].[Na+] [Cloxacillin sodium (Cloxacap)]
[1]; LoVo, repeated experiment
  The results of antibiotic drug inhibiting cancer cell lines (cell viability analysis), LoVo: 98.38
[2]; MDA-MB231, repeated experiment
  The results of antibiotic drug inhibiting cancer cell lines (cell viability analysis), MDA-MB231: 101.6
[3]; HeLa, repeated experiment
  The results of antibiotic drug inhibiting cancer cell lines (cell viability analysis), HeLa: 120.1
[4]; A375, repeated experiment
  The results of antibiotic drug inhibiting cancer cell lines (cell viability analysis), A375: 110.7
U-2OS; U2OS, repeated experiment
  The results of antibiotic drug inhibiting cancer cell lines (cell viability analysis), U2OS: 69.87
[5]
  The results of antibiotic drug inhibiting cancer cell lines (cell viability analysis), Hep3B: 118.4
[6]; H1650, repeated experiment
  The results of antibiotic drug inhibiting cancer cell lines (cell viability analysis), H1650: 86.43
NIH: OVCAR-3; NIH-OVCAR-3, repeated experiment
  The results of antibiotic drug inhibiting cancer cell lines (cell viability analysis), NIH-OVCAR-3: 106.9
[7]; SAS, repeated experiment
  The results of antibiotic drug inhibiting cancer cell lines (cell viability analysis), SAS: 70.4
[8]; C-33A, repeated experiment
  The results of antibiotic drug inhibiting cancer cell lines (cell viability analysis), C-33A: 104.6
[9]; 786-O, repeated experiment
  The results of antibiotic drug inhibiting cancer cell lines (cell viability analysis), 786-O: 106.1
AsPC-1; AsPC-1, repeated experiment
  The results of antibiotic drug inhibiting cancer cell lines (cell viability analysis), AsPC-1: 80
TOV-21G; TOV-21G, repeated experiment
  The results of antibiotic drug inhibiting cancer cell lines (cell viability analysis), TOV-21G: 105.9
[10]; BCC, repeated experiment
  The results of antibiotic drug inhibiting cancer cell lines (cell viability analysis), BCC: 116.6
[11]; MCF-7, repeated experiment
  The results of antibiotic drug inhibiting cancer cell lines (cell viability analysis), MCF-7: 103.7
[12]; A549, repeated experiment
  The results of antibiotic drug inhibiting cancer cell lines (cell viability analysis), A549: 98.33
T24; T24, repeated experiment
  The results of antibiotic drug inhibiting cancer cell lines (cell viability analysis), T24: 100.9
BxPC-3; BxPC-3, repeated experiment
  The results of antibiotic drug inhibiting cancer cell lines (cell viability analysis), BxPC-3: 69.13
[13]; MKN-45, repeated experiment
  The results of antibiotic drug inhibiting cancer cell lines (cell viability analysis), MKN-45: 111.3

## Colistimethate Sodium
[1]
  The results of antibiotic drug inhibiting cancer cell lines (cell viability analysis), LoVo: 85.06
[2]
  The results of antibiotic drug inhibiting cancer cell lines (cell viability analysis), MDA-MB231: 76.75
[14]
  The results of antibiotic drug inhibiting cancer cell lines (cell viability analysis), HepG2: 107.4
[3]
  The results of antibiotic drug inhibiting cancer cell lines (cell viability analysis), HeLa: 77.79
[4]
  The results of antibiotic drug inhibiting cancer cell lines (cell viability analysis), A375: 94.89
U-2OS
  The results of antibiotic drug inhibiting cancer cell lines (cell viability analysis), U2OS: 83.33
[6]
  The results of antibiotic drug inhibiting cancer cell lines (cell viability analysis), H1650: 82.62
NIH: OVCAR-3
  The results of antibiotic drug inhibiting cancer cell lines (cell viability analysis), NIH-OVCAR-3: 103.4
[7]
  The results of antibiotic drug inhibiting cancer cell lines (cell viability analysis), SAS: 77.78
[8]
  The results of antibiotic drug inhibiting cancer cell lines (cell viability analysis), C-33A: 107.5
[9]
  The results of antibiotic drug inhibiting cancer cell lines (cell viability analysis), 786-O: 86.46
[15]
  The results of antibiotic drug inhibiting cancer cell lines (cell viability analysis), PC-3: 101.1
Cancer cell lines
  inhibition effect on different cancer cell lines: significant inhibition effect
AsPC-1
  The results of antibiotic drug inhibiting cancer cell lines (cell viability analysis), AsPC-1: 82.31
[16]
  The results of antibiotic drug inhibiting cancer cell lines (cell viability analysis), AGS: 87.05
TOV-21G
  The results of antibiotic drug inhibiting cancer cell lines (cell viability analysis), TOV-21G: 64.02
[10]
  The results of antibiotic drug inhibiting cancer cell lines (cell viability analysis), BCC: 77.04
[11]
  The results of antibiotic drug inhibiting cancer cell lines (cell viability analysis), MCF-7: 74.61
[12]
  The results of antibiotic drug inhibiting cancer cell lines (cell viability analysis), A549: 89.46
[17]
  The results of antibiotic drug inhibiting cancer cell lines (cell viability analysis), TSGH-8301: 111.7
T24
  The results of antibiotic drug inhibiting cancer cell lines (cell viability analysis), T24: 108.3
BxPC-3
  The results of antibiotic drug inhibiting cancer cell lines (cell viability analysis), BxPC-3: 76.87
[13]
  The results of antibiotic drug inhibiting cancer cell lines (cell viability analysis), MKN-45: 104.8

— US10105357B2, “Indication of antibiotic drugs for preparation of cancer inhibition pharmaceutical composition” (LAUNX BIOMEDICAL CO., LTD., priority 2014, dated 2018)
